Columns and labels:
[1] = tested on: Klebsiella pneumoniae; assay: Sensitization to rifampin, checkerboard method; assay type: cell-based; settings: adjuvant at 8 µg/mL (10 µM for C14(ω5)OOc10O), Kp, LB
Experimental: (§1) Bacterial sensitization: Sensitization to antibiotics was determined using the checkerboard method in presence of sub-MIC OAC (2.5, 5, and 10 μM), as described. The synergistic effect of the combinations was expressed in terms of the Sensitization Factor (SF), where SF = (MIC antibiotic alone)/(MIC antibiotic upon combination). Data were obtained from three independent assays performed in duplicate.
(§2) Figure 4 Hydrophobicity dependence of antibiotics potentiation by lipopeptide analogs. Sensitization of GNB to rifampin and erythromycin (upper and lower panel, respectively) was assessed by MIC experiments performed in LB medium, in presence or absence of an OAC analog whose A2 position was gradually shortened (from c10 to c6). Pseudomonas aeruginosa 27853 (Pa, blue), Klebsiella pneumoniae 1287 (Kp, green), Escherichia coli 25922 (Ec, red), and Acinetobacter baumannii 19606 (Ab, black).

[2] = tested on: Pseudomonas aeruginosa 27853; assay: Sensitization to rifampin, checkerboard method; assay type: cell-based; settings: adjuvant at 8 µg/mL (10 µM for C14(ω5)OOc10O), Pa 27853, LB
Experimental: as §1, §2

[3] = tested on: Acinetobacter baumannii 19606; assay: Sensitization to rifampin, checkerboard method; assay type: cell-based; settings: adjuvant at 8 µg/mL (10 µM for C14(ω5)OOc10O), Ab 19606, LB
Experimental: as §1, §2

[4] = tested on: Escherichia coli 25922; assay: Sensitization to rifampin, checkerboard method; assay type: cell-based; settings: adjuvant at 8 µg/mL (10 µM for C14(ω5)OOc10O), Ec 25922, LB
Experimental: as §1, §2

[5] = tested on: E. coli strain AG100; assay: microbe, parasite or virus in culture; assay type: cell-based, Escherichia coli; settings: strain AG100
Experimental: (§3) Bacteria:Escherichia coli strains: 25922 and 35218 (ATCC, Manassas, VA, USA), 14182 (clinical isolate), Ag100 and Ag100A [34] (ΔacrAB) are two K-12 isogenic mutantsand the engineered mutant ML-35p. Additional ESKAPE species tested: Klebsiella pneumoniae strains 1287 and 224 (clinical isolates), Acinetobacter baumannii ATCC strain 19606, Pseudomonas aeruginosa ATCC strains 9027 and 27853. Bacteria were grown in Luria–Bertani (LB) broth (0.5% NaCl, 0.5% yeast extract, 1% tryptone, pH = 7), except for E. coli ML-35p that was grown in tryptic-soy broth.
(§4) Peptide self-assembly was determined by static light scattering measurements as described. Hemolysis was determined by measuring hemoglobin leakage from washed human RBCs, as described. Minimal inhibitory concentration (MIC) was determined using the microdilution assay, as described. Bactericidal kinetics were determined by mixing bacteria with rifampin, OAC, or their combinations, as described. Data were obtained from three independent assays performed in duplicate.
(§5) The wild-type E. coli strain AG100 and its isogenic ΔacrAB mutant AG100A were used to determine the MIC of OACs and of two known acrAB-TolC substrates: the AMP LL-37 and the macrolide antibiotic erythromycin that are normally inefficient against GNB.

[6] = tested on: E. coli ΔacrAB mutant AG100A; assay: microbe, parasite or virus in culture; assay type: cell-based, Escherichia coli; settings: isogenic ΔacrAB mutant AG100A
Experimental: as §3, §4, §5

[7] = tested on: E. coli 25922; assay: Thigh infection model; assay type: in vivo, mouse; settings: 12.5 mg/kg S.C at 1 and 3 h post-infection, CFU/thigh at 24 h, 8 mice per group
Experimental: Animals: All animal studies were performed using male ICR mice (25 ± 2 gr). The Technion Animal Care and Use committee approved all procedures, care, and handling of animals. Ethics approval codes: IL0800519, IL0640421, IL0550618, IL1811217.
For efficacy assessments, three infection models were used including one with topical treatment and two with systemic treatment. • Excisional skin wound infection model: mice were anesthetized by intraperitoneal administration of a mixture of ketamine 100 mg/kg and xylazine 5 mg/kg in PBS and their backs shaved with electric clippers. The following day mice were similarly anesthetized and were administrated (S.C) 0.05 mg/kg buprenorphine (for pain relief). A 5 mm diameter piece of skin was removed from the middle of the shaved back, with sterile biopsy punch resulting in a full-thickness injury. A total of 20 µL of a mid-logarithmic culture, containing 5 × 10^6 CFU P. aeruginosa 27853 were applied on the wound. […] The number of viable bacteria was determined after overnight incubation at 37 °C. […] The number of viable bacteria was determined after overnight incubation at 37 °C. […] The number of viable bacteria was determined after overnight incubation at 37 °C. […]

[8] = Hydrophobicity by reversed phase HPLC elution; assay type: physicochemical; settings: % acetonitrile required for elution in reversed phase HPLC, C18 column; rounded to nearest whole number

In the case of `CCCCC=CCCCCCCCC(=O)N[C@@H](CCCN)C(=O)N[C@@H](CCCN)C(=O)NCCCCCCCCCC(=O)N[C@@H](CCCN)C(N)=O` [C14(ω5)OOc10O], the “Sensitization factor (rifampin MIC alone)/(rifampin MIC in combination)” value (from here on “Sensitization factor”) [1] is reported as 64,000, the “Sensitization factor” value [2] is reported as 32,000 and the “Sensitization factor” value [3] is reported as 4000. The “Sensitization factor” value [4] was 32,000, the MIC [5] was 25 µM and the “MIC, Ag100A” value [6] was 6.2 µM. For the same compound, the “Effect on thigh bacterial loads” value [7] was “unable to reduce bacterial loads” and the “H, hydrophobicity” value [8] was 50%.

Reference: PMC8621570, “Mechanistic Studies of Antibiotic Adjuvants Reducing Kidney’s Bacterial Loads upon Systemic Monotherapy” (Pharmaceutics, 2021)
